Structures are written as SMILES. Several values for one entry are separate records, joined by “and”; a condition that tells them apart may be missing. Identical values can stand only once.

For one experiment, the target named is T1, recombinant human GST-Syk (Homo sapiens, UniProt P43405).
T1 construct: purchased Carna Biosciences 08-176
The experiment in a line: Homogeneous Time-Resolved Fluorescence (HTRF) assay for the recombinant human Syk enzyme. It counts as biochemical. The conditions noted are these: recombinant human GST-Syk 5 pM, ATP 25 μM, 10-dose titration 10 μM to 0.508 nM; read-out: rhSYK Activity IC50. In a few lines:
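GST-hSyk fusion protein phosphorylated a peptide for 45 min at room temperature. The reaction was quenched with 2 nM Eu-anti-phosphotyrosine antibody and 70 nM SA-APC in 15 mM Tris pH 7.5, 40 mM EDTA, 0.01% Tween 20. The HTRF signal was read after 30 min.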
Background: Time-resolved FRET reads energy transfer from a long-lived donor to a nearby acceptor.
As to `Cc1cc(Nc2cc(C(F)F)ccn2)nc(-c2cn(C(C)C(C)(O)CO)nn2)c1` (single isomer, unassigned) [Example 30.5, 3-[4-(6-{[4-(difluoromethyl)pyridin-2-yl]amino}-4-methylpyridin-2-yl)-1H-1,2,3-triazol-1-yl]-2-methylbutane-1,2-diol], the IC50 was found to be 2.7 nM.
On the same count and under the same terms, as for `Cc1cc(Nc2cc(C(F)(F)F)ccn2)nc(-c2cn(C3CCC(C(=O)O)C(C)(C)C3)nn2)c1` (single isomer, unassigned) [Example 3.7, (R or S) 2,2-dimethyl-4-[4-(4-methyl-6-{[4-(trifluoromethyl)pyridin-2-yl]amino}pyridin-2-yl)-1H-1,2,3-triazol-1-yl]cyclohexanecarboxylic acid], the figure is 3.7 nM.
The same measure, in the same setting: the result for `Cc1cc(Nc2cc(C(F)(F)F)ccn2)nc(-c2cn(C[C@H](C)CO)nn2)c1` [Example 5.82, (2S)-2-methyl-3-[4-(4-methyl-6-{[4-(trifluoromethyl)pyridin-2-yl]amino}pyridin-2-yl)-1H-1,2,3-triazol-1-yl]propan-1-ol] reads 7.9 nM; that for `Cc1cc(Nc2cc(C(F)(F)F)ccn2)nc(-c2cn(CC(C)(O)C(N)=O)nn2)c1` (centres unmarked) [Example 1.12, 2-hydroxy-2-methyl-3-[4-(4-methyl-6-{[4-(trifluoromethyl)pyridin-2-yl]amino}pyridin-2-yl)-1H-1,2,3-triazol-1-yl]propanamide], 4.9 nM; that for `Cc1cc(Nc2cc(C(F)(F)F)ccn2)nc(-c2cn(C(C(=O)O)c3ccccc3)nn2)c1` (centres unmarked) [Example 3.11, [4-(4-methyl-6-{[4-(trifluoromethyl)pyridin-2-yl]amino}pyridin-2-yl)-1H-1,2,3-triazol-1-yl](phenyl)acetic acid], 5.1 nM.
The same measure, in the same setting: as for `Cc1cc(Nc2cc(C3CCC3)ccn2)nc(-c2cn(C(C)c3ccc(C(=O)O)cc3)nn2)c1` (centres unmarked) [Example 2.10, 4-[1-(4-{6-[(4-cyclobutylpyridin-2-yl)amino]-4-methylpyridin-2-yl}-1H-1,2,3-triazol-1-yl)ethyl]benzoic acid], the figure is 3.7 nM; as for `Cc1cc(Nc2cc(C(F)(F)F)ccn2)nc(-c2cn(C[C@@H](O)C(=O)O)nn2)c1` [Example 4.20, (2R)-2-hydroxy-3-[4-(4-methyl-6-{[4-(trifluoromethyl)pyridin-2-yl]amino}pyridin-2-yl)-1H-1,2,3-triazol-1-yl]propanoic acid], 17 nM.
Take `Cc1cc(Nc2cc(C(F)(F)F)ccn2)nc(-c2cn(CC(O)C(O)COc3ccccc3Cl)nn2)c1` (centres unmarked) [Example 10.8, 1-(2-chlorophenoxy)-4-[4-(4-methyl-6-{[4-(trifluoromethyl)pyridin-2-yl]amino}pyridin-2-yl)-1H-1,2,3-triazol-1-yl]butane-2,3-diol]: the IC50 came to 63.3 nM.
As for `Cc1cc(Nc2cc(C(C)O)ccn2)nc(-c2cn(C(C)c3ccc(C(=O)O)cc3)nn2)c1` (centres unmarked) [Example 2.3, 4-{1-[4-(6-{[4-(1-hydroxyethyl)pyridin-2-yl]amino}-4-methylpyridin-2-yl)-1H-1,2,3-triazol-1-yl]ethyl}benzoic acid], the IC50 amounted to 21.1 nM.
The same measure, in the same setting: the result for `Cc1cc(Nc2cc(C(F)(F)F)ccn2)nc(-c2cn(C[C@H](O)CC#N)nn2)c1` [Example 5.44, (3R)-3-hydroxy-4-[4-(4-methyl-6-{[4-(trifluoromethyl)pyridin-2-yl]amino}pyridin-2-yl)-1H-1,2,3-thiazol-1-yl]butanenitrile] reads 4.1 nM and 3.18 nM.
`Cc1cc(Nc2nccc(C(F)(F)F)n2)cc(-c2cn(CCOCCO)nn2)c1` [Example 5.49, 2-{2-[4-(3-methyl-5-{[4-(trifluoromethyl)pyrimidin-2-yl]amino}phenyl)-1H-1,2,3-triazol-1-yl]ethoxy}ethanol]: the IC50 was found to be 78.8 nM.
On the same count and under the same terms, as for `Cc1cc(Nc2nccc(C(F)(F)F)n2)cc(-c2cn(CC(C)(O)CO)nn2)c1` (single isomer, unassigned) [Example 21.4, 2-methyl-3-[4-(3-methyl-5-{[4-(trifluoromethyl)pyrimidin-2-yl]amino}phenyl)-1H-1,2,3-triazol-1-yl]propane-1,2-diol], the figure is 10.3 nM; as for `Cc1cc(Nc2cc(C(C)F)ccn2)nc(-c2cn(CC(C)(O)C(C)(C)O)nn2)c1` (centres unmarked) [Example 21.32, 1-[4-(6-{[4-(1-fluoroethyl)pyridin-2-yl]amino}-4-methylpyridin-2-yl)-1H-1,2,3-triazol-1-yl]-2,3-dimethylbutane-2,3-diol], 22.2 nM; as for `Cc1cc(Nc2nccc(C(F)(F)F)n2)cc(-c2cn(CC(O)CO)nn2)c1` (racemic) [Example 5.76, 3-[4-(3-methyl-5-{[4-(trifluoromethyl)pyrimidin-2-yl]amino}phenyl)-1H-1,2,3-triazol-1-yl]propane-1,2-diol], 32.4 nM.
In the case of `Cc1cc(Nc2cc(C(F)F)ccn2)nc(-c2cn(CC3OC(=O)NC3C)nn2)c1` (single isomer, unassigned) [Example 7.43, 5-{[4-(6-{[4-(difluoromethyl)pyridin-2-yl]amino}-4-methylpyridin-2-yl)-1H-1,2,3-triazol-1-yl]methyl}-4-methyl-1,3-oxazolidin-2-one], the IC50 was 3.8 nM.
On the same count and under the same terms, the result for `Cc1cc(Nc2cc(C(F)F)ccn2)nc(-c2cn(CC3CNC(=O)O3)nn2)c1` (single isomer, unassigned) [Example 7.13, 5-((4-(6-((4-(difluoromethyl)pyridin-2-yl)amino)-4-methylpyridin-2-yl)-1H-1,2,3-triazol-1-yl)methyl)oxazolidin-2-one] reads 2 nM; that for `Cc1cc(Nc2ncc(F)c(C(F)F)n2)cc(-c2cn(C3CCCCC3(C)O)nn2)c1` (single isomer, unassigned) [Example 7.25, 2-[4-(3-{[4-(difluoromethyl)-5-fluoropyrimidin-2-yl]amino}-5-methylphenyl)-1H-1,2,3-triazol-1-yl]-1-methylcyclohexanol], 38.2 nM.
On the same count and under the same terms, the result for `Cc1cc(Nc2nccc(C(F)(F)F)n2)cc(-c2cn(CC3(O)CCOCC3)nn2)c1` [Example 4.14, 4-{[4-(3-methyl-5-{[4-(trifluoromethyl)pyrimidin-2-yl]amino}phenyl)-1H-1,2,3-triazol-1-yl]methyl}tetrahydro-2H-pyran-4-ol] reads 48.1 nM; that for `Cc1cc(Nc2nccc(C(F)(F)F)n2)cc(-c2cn(CC(O)C(=O)O)nn2)c1` (racemic) [Example 5.61, 2-hydroxy-3-[4-(3-methyl-5-{[4-(trifluoromethyl)pyrimidin-2-yl]amino}phenyl)-1H-1,2,3-triazol-1-yl]propanoic acid], 29.4 nM.
Still for that read-out and setting: the result for `Cc1cc(Nc2nccc(C)n2)cc(-c2cn(C3CCCCC3(C)O)nn2)c1` (single isomer, unassigned) [Example 7.27, 1-methyl-2-(4-{3-methyl-5-[(4-methylpyrimidin-2-yl)amino]phenyl}-1H-1,2,3-triazol-1-yl)cyclohexanol] reads 90.4 nM; that for `COC(=O)CCn1cc(-c2cc(C)cc(Nc3cc(C(F)(F)F)ccn3)n2)nn1` [Example 5.10, methyl 3-[4-(4-methyl-6-{[4-(trifluoromethyl)pyridin-2-yl]amino}pyridin-2-yl)-1H-1,2,3-triazol-1-yl]propanoate], 40.4 nM.
Turning to `Cc1cc(Nc2ncc(F)c(C(F)F)n2)cc(-c2cn(C3CCCCC3(C)O)nn2)c1` (single isomer, unassigned) [Example 7.26, 2-[4-(3-{[4-(difluoromethyl)-5-fluoropyrimidin-2-yl]amino}-5-methylphenyl)-1H-1,2,3-triazol-1-yl]-1-methylcyclohexanol], the IC50 came out at 13.1 nM.
With `Cc1cc(Nc2cc(C(F)(F)F)ccn2)nc(-c2nnc(C)n2C)c1` [Example 16.1, 6-(4,5-dimethyl-4H-1,2,4-triazol-3-yl)-4-methyl-N-[4-(trifluoromethyl)pyridin-2-yl]pyridin-2-amine], the IC50 was 650 nM.
On the same count and under the same terms, as for `Cc1cc(Nc2ncc(Cl)c(C)n2)cc(-c2cn(CC(C)(O)C(C)(C)O)nn2)c1` (centres unmarked) [Example 21.11, 1-(4-{3-[(5-chloro-4-methylpyrimidin-2-yl)amino]-5-methylphenyl}-1H-1,2,3-triazol-1-yl)-2,3-dimethylbutane-2,3-diol], the figure is 182 nM; as for `Cc1cc(Nc2nccc(C(F)(F)F)n2)cc(-c2cn(CC(C)(C)O)nn2)c1` [Example 5.55, 2-methyl-1-[4-(3-methyl-5-{[4-(trifluoromethyl)pyrimidin-2-yl]amino}phenyl)-1H-1,2,3-triazol-1-yl]propan-2-ol], 23.5 nM; as for `Cc1cc(Nc2nccc(C(F)F)n2)cc(-c2cn(CC3(O)CNC(=O)C3)nn2)c1` (single isomer, unassigned) [Example 31.1, 4-((4-(3-((4-(Difluoromethyl)pyrimidin-2-yl)amino)-5-methylphenyl)-1H-1,2,3-triazol-1-yl)methyl)-4-hydroxypyrrolidin-2-one], 7.3 nM.
`Cc1ccnc(Nc2cc(C)cc(-c3cn(C[C@H](O)CC#N)nn3)n2)c1` [Example 5.14, (3R)-3-hydroxy-4-(4-{4-methyl-6-[(4-methylpyridin-2-yl)amino]pyridin-2-yl}-1H-1,2,3-triazol-1-yl)butanenitrile]: the IC50 amounted to 23.4 nM.
Still for that read-out and setting: the result for `Cc1cc(Nc2cc(C(F)(F)F)ccn2)nc(-c2cn(CC(O)C(C)C)nn2)c1` (centres unmarked) [Example 4.24, 3-methyl-1-[4-(4-methyl-6-{[4-(trifluoromethyl)pyridin-2-yl]amino}pyridin-2-yl)-1H-1,2,3-triazol-1-yl]butan-2-ol] reads 8.3 nM.

The same experiment, now with this note: rhSYK Activity IC50, recombinant human GST-Syk 5 pM, ATP 25 μM, 10-dose titration 10 μM to 0.508 nM.
On to `Cc1cc(Nc2nccc(C(F)(F)F)n2)cc(-c2cn(CCNC(N)=O)nn2)c1` [Example 5.56, 1-{2-[4-(3-methyl-5-{[4-(trifluoromethyl)pyrimidin-2-yl]amino}phenyl)-1H-1,2,3-triazol-1-yl]ethyl}urea], for which the IC50 was determined as 76.8 nM.

By IC50 is commonly meant the concentration needed to halve the response being measured.

These data come from patent US9586931B2 (Merck Sharp & Dohme Corp., priority 2012, dated 2017).
